Results on eleven molecules are retold here after patent publication US9944654B2, “Nargenicin compounds and uses thereof as antibacterial agents” (priority 2014, dated 2018).

Assay [1] addresses T1, E. coli DnaE (DNA polymerase III α-subunit from Escherichia coli) (Escherichia coli, UniProt P10443).
T1 construct: EcDnaE (E. coli DnaE residues 1-1160); 6xHis (N); made in house; host or cells: E. coli BL21(DE3)
Put plainly: In vitro DnaE single enzyme assay (E. coli). It counts as biochemical. The procedure, abridged: (§1)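 His-tagged E. coli DnaE (residues 1-1160, 0.8 μg/ml) or S. aureus DnaE (residues 1-1065, 0.05 μg/ml) incubated 30 min at 30° C. with activated calf thymus DNA, 0.025 mM dATP/dGTP/dCTP and 0.011 mM 3H-dTTP in Tris pH 7.5/Mg acetate. TCA-precipitated labelled DNA counted.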

In assay [2] the test system is Staphylococcus aureus MB6266 (MRSA COL). Put plainly: Nargenicin antibacterial assay (MIC), S. aureus. It counts as cell-based. As to conditions: Staphylococcus aureus, MRSA, read-out: S. aureus COL (MIC), MHII broth + 50% human serum; * = some reduction of growth versus control at […].
For assay [3], the system named is Pseudomonas aeruginosa MB5890 (CB1101, efflux-deleted). Put plainly: microbe, parasite or virus in culture. It counts as cell-based. As to conditions: Pseudomonas aeruginosa, read-out: P. aeruginosa MB5890 efflux-del (MIC), MHII broth; * = some reduction of growth versus control at […].
Assay [4] has as its system Escherichia coli MB5747 (LS 883, tolC). Briefly: microbe, parasite or virus in culture. The conditions noted are these: Escherichia coli, read-out: E. coli LS883 tolC (MIC), MHII broth; * = some reduction of growth versus control at […]. It counts as cell-based.
Assay [5] has as its system Streptococcus pneumoniae MB6357 (CL 2883). Briefly: Nargenicin antibacterial assay (MIC), S. pneumoniae. It counts as cell-based. The conditions noted are these: Streptococcus pneumoniae, read-out: S. pneumoniae MB2883 (MIC), Isosensitest broth; * = some reduction of growth versus control at […].
In assay [6] the target is T2, S. aureus DnaE (DNA polymerase III α-subunit homolog from Staphylococcus aureus) (Staphylococcus aureus, UniProt Q5HF71).
T2 construct: SaDnaE (S. aureus DnaE residues 1-1065); 6xHis (N); made in house; host or cells: E. coli BL21-AI
T2 sequence (Q5HF71 1-1065): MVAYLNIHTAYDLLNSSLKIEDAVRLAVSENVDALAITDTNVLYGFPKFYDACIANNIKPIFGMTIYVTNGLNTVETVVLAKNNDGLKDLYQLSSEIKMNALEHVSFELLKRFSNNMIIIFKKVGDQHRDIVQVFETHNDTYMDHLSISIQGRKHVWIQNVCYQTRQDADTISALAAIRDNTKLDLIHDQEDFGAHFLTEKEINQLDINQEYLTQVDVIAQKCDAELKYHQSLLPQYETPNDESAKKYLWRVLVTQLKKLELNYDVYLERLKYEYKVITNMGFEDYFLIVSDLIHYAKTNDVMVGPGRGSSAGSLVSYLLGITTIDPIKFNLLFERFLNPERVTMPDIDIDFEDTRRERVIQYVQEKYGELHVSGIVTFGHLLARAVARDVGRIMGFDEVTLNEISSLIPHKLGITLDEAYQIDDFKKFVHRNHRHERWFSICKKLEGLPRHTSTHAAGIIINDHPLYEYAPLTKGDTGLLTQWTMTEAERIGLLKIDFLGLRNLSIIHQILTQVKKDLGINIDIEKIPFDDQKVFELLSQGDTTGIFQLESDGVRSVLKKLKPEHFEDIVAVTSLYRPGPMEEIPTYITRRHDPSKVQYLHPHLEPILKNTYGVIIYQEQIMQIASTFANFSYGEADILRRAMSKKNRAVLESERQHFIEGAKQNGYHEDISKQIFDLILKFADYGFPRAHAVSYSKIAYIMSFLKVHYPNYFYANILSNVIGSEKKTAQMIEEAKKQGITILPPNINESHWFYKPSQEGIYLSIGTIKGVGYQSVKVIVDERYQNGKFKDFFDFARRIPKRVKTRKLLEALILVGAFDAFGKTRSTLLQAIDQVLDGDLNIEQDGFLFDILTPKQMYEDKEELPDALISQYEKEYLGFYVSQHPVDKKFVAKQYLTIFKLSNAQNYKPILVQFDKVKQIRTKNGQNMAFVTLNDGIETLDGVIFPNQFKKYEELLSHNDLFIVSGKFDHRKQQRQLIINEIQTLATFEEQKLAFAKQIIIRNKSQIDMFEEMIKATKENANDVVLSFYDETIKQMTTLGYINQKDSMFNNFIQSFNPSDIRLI
Briefly: biochemical. It counts as biochemical. The procedure, abridged:
as §1

Setting [7] is: read-out: S. aureus DnaE IC50 (converted).
[8] abbreviates: read-out: E. coli DnaE IC50 (converted).

For orientation: IC50 means the concentration that inhibits the measured activity by half.

≈ marks a conversion by molar mass, not a printed value. Read-outs that look alike come from different tables or passages of the source. A value given as a limit tells only on which side of the number the result lay.

T1 sequence (P10443 whole entry, the tested form may be a part): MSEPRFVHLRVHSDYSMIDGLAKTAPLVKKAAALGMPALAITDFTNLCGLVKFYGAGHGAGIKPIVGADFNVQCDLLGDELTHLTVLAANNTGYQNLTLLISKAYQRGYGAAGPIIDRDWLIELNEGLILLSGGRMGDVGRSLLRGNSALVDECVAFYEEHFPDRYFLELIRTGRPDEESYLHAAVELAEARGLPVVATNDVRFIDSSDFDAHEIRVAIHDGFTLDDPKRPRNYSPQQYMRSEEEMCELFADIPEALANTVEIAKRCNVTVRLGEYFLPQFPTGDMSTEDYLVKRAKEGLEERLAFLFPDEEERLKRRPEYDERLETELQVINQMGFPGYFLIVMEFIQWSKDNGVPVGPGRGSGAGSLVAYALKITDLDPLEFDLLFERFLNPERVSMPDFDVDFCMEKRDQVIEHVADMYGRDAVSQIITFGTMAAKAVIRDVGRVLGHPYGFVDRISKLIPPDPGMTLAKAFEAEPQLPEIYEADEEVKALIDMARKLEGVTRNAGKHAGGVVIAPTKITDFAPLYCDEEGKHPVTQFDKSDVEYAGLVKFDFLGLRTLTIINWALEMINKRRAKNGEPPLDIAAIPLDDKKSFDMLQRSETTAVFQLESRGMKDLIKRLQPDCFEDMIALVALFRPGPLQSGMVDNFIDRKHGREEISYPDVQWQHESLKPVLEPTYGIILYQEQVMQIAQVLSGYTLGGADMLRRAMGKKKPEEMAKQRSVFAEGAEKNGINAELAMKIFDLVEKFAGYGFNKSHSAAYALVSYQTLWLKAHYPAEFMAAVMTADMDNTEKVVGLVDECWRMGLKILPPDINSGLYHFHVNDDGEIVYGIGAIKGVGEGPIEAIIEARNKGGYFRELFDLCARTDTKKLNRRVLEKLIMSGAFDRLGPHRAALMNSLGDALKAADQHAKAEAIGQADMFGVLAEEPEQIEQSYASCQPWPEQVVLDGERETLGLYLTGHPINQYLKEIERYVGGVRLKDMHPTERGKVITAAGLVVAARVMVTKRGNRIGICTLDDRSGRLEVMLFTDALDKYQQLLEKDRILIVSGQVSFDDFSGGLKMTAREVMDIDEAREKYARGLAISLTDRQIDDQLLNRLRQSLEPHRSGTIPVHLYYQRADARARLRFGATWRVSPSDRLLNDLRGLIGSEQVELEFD

For the molecule `C=CC[C@H]1[C@@H]2O[C@@]34/C(C)=C/[C@@H](C)[C@@H]([C@@H](C)O)OC(=O)[C@@H](OC)C[C@H]3C=C[C@@H]2[C@H]4C(=O)[C@@H]1C` [Example 150, (3R,4S,7S,8aS,10aR,11S,12R,13R,14aR,14bS,E)-12-allyl-4-((R)-1-hydroxyethyl)-7-methoxy-1,3,13-trimethyl-3,4,8,8a,10a,11,12,13-octahydro-11,14b-epoxynaphtho[2,1-e]oxecine-6,14(7H,14aH)-dion], the half-maximal inhibitory concentration (IC50) in assay [1] (E. coli DnaE IC50) is greater than 112 µM; in assay [6] (setting [7]) it was 5.62 µM. In addition, the MIC was greater than 64 µg/mL in assay [2], greater than 64 µg/mL in assay [3], greater than 64 µg/mL in assay [4] and 64 µg/mL (≈ 144 µM) in assay [5].

`CO[C@H]1C[C@H]2C=C[C@H]3[C@H]4O[C@]2(/C(C)=C/[C@@H](C)[C@@H]([C@@H](C)O)OC1=O)[C@@H]3[C@H](O)C(C)[C@@H]4CO` (stereo partly drawn) [Example 163, (3R,4S,7S,8aS,10aR,11R,12R,14R,14aS,14bS,E)-14-hydroxy-4-((R)-1-hydroxyethyl)-12-(hydroxymethyl)-7-methoxy-1,3,13-trimethyl-3,4,8,8a,10a,11,12,13,14,14a-decahydro-11,14b-epoxynaphtho[2,1-e]oxecin-6(7H)-one]: the half-inhibitory concentration (IC50) in assay [1] (E. coli DnaE IC50) was greater than 229 µM; in assay [6] (setting [7]), 0.687 µM. In addition, the MIC was greater than 128 µg/mL in assay [2], 8 µg/mL (≈ 18.3 µM) in assay [3], 8 µg/mL (≈ 18.3 µM) in assay [4] and greater than 128 µg/mL in assay [5].

For the molecule `CO[C@H]1C[C@H]2C=C[C@H]3[C@H]4O[C@]2(/C(C)=C/[C@@H](C)[C@@H](c2ccccc2)OC1=O)[C@@H]3[C@H](O)[C@@H](C)[C@H]4OC(=O)c1ccc[nH]1` [Example 51], the figures for the IC50 in assay [1] (setting [8]) and in assay [6] (S. aureus DnaE IC50) were 14.6 µM and less than 0.011 µM, respectively. Further, the MIC in assay [2] was 0.25 µg/mL; in assay [3], greater than 128 µg/mL; in assay [4], greater than 128 µg/mL; in assay [5], greater than 128 µg/mL.

Regarding `CO[C@H]1C[C@H]2CC[C@H]3[C@H]4O[C@]2(/C(C)=C/[C@@H](C)[C@@H]([C@@H](C)O)OC1=O)[C@@H]3[C@H](O)[C@@H](C)[C@H]4OC(=O)c1ccc[nH]1` [Example 37, (3R,4S,7S,8aR,10aR,11R,12R,13R,14R,14aS,14bS,E)-14-hydroxy-4-((R)-1-hydroxyethyl)-7-methoxy-1,3,13-trimethyl-6-oxo-3,4,6,7,8,8a,9,10,10a,11,12,13,14,14a-tetradecahydro-11,14b-epoxynaphtho[2,1-e]oxecin-12-yl 1H-pyrrole-2-carboxylate], the IC50 was greater than 193 µM in assay [1] (E. coli DnaE IC50) and less than 0.0966 µM in assay [6] (S. aureus DnaE IC50). Further, the MIC is greater than 8 µg/mL in assay [2], 128 µg/mL (≈ 247 µM) in assay [3], greater than 8 µg/mL in assay [4] and greater than 128 µg/mL in assay [5].

On to `CO[C@H]1C[C@H]2C=C[C@H]3[C@H]4O[C@]2(/C(C)=C/[C@@H](C)[C@@H]([C@@H](C)O)OC1=O)[C@@H]3C(=O)C(C)[C@H]4C#N` (stereo partly drawn) [Example 176, (3R,4 S ,7S ,8aS ,10aR,11R,12S ,14aR,14b S,E)-4-((R)-1-hydroxyethyl)-7-methoxy-1,3,13-trimethyl-6,14-dioxo-3,4,6,7,8,8a,10a,11,12,13,14,14a-dodecahydro-11,14b-epoxynaphtho[2,1-e]oxecine-12-carbonitrile], for which the IC50 in assay [1] (E. coli DnaE IC50) was greater than 233 µM; in assay [6] (setting [7]), 25.6 µM. Further, the MIC in assay [2], in assay [3], in assay [4] and in assay [5] was greater than 128 µg/mL each time.

As to `CO[C@H]1CC2C=C[C@H]3[C@H]4O[C@]2(/C(C)=C/[C@@H](C)[C@@H](/C(C)=N\O)OC1=O)[C@@H]3[C@H](O)[C@@H](C)[C@H]4OC(=O)c1ccc[nH]1` (stereo partly drawn) [Example 180], the IC50 in assay [1] (setting [8]) is 11.4 µM; in assay [6] (S. aureus DnaE IC50), less than 0.0114 µM. Moreover, the MIC in assay [2] was found to be 4 µg/mL; in assay [3], 64 µg/mL (≈ 121 µM); in assay [4], 4 µg/mL (≈ 7.57 µM); in assay [5], 32 µg/mL (≈ 60.5 µM).

In the case of `CO[C@H]1C[C@H]2C=CC3C4[C@H](O)[C@@H](C)[C@@H](OC(=O)c5ccc[nH]5)[C@@H]3O[C@]42/C(C)=C/[C@@H](C)[C@@H]([C@@H](C)OC(=O)C(=O)OCCN2CCCCC2)OC1=O.O=C(O)C(F)(F)F` [Example 213], the IC50 in assay [1] (setting [8]) was 4.43 µM; in assay [6] (S. aureus DnaE IC50) it was less than 0.00738 µM. In addition, the MIC in assay [2] is 4 µg/mL; in assay [3] it was 128 µg/mL; in assay [4], 4 µg/mL; in assay [5], greater than 128 µg/mL.

As to `CO[C@H]1C[C@H]2C=C[C@H]3[C@H]4O[C@]2(/C(C)=C/[C@@H](C)[C@@H]([C@@H](C)OC(=O)OC(C)C)OC1=O)[C@@H]3[C@H](O)[C@@H](C)[C@H]4OC(=O)c1ccc[nH]1` [Example 33], the IC50 in assay [1] (setting [8]) is 58.2 µM; in assay [6] (S. aureus DnaE IC50), 0.0349 µM. In addition, the MIC in assay [2] is 32 µg/mL; in assay [3], greater than 128 µg/mL; in assay [4], greater than 64 µg/mL; in assay [5], 8 µg/mL (≈ 13.3 µM).

`CO[C@H]1C[C@H]2C=CC3C4[C@H](O)[C@@H](C)[C@@H](OC(=O)c5ccc[nH]5)[C@@H]3O[C@]42/C(C)=C/[C@@H](C)C([C@@H](C)O)NC1=O` (stereo partly drawn) [Example 170]: the values for the IC50 in assay [1] (setting [8]) and in assay [6] (S. aureus DnaE IC50) were greater than 194 µM and 2.53 µM, respectively. Further, the MIC was greater than 128 µg/mL in assay [2], greater than 128 µg/mL in assay [3], 128 µg/mL (≈ 249 µM) in assay [4] and greater than 128 µg/mL in assay [5].

In the case of `CO[C@H]1CC2C=C[C@H]3[C@H]4O[C@]2(/C(C)=C/[C@@H](C)[C@@H]([C@@H](C)O)OC1=O)[C@@H]3[C@H](OC(N)=O)[C@@H](C)[C@H]4OC(=O)c1ccc[nH]1` (stereo partly drawn) [Example 38, (3R,4S,7S,10aR,11R,12R,13R,14R,14aS,14bS,E)-14-(carbamoyloxy)-4-((R)-1-hydroxyethyl)-7-methoxy-1,3,13-trimethyl-6-oxo-3,4,6,7,8,8a,10a,11,12,13,14,14 a-dodecahydro-11,14b-epoxynaphtho[2,1-e]oxecin-12-yl 1H-pyrrole-2-carboxylate], the figures for the IC50 in assay [1] (setting [8]) and in assay [6] (S. aureus DnaE IC50) were roughly 197 µM and 0.0394 µM, respectively. For the same molecule, the MIC in assay [2] is 32 µg/mL; in assay [3] it was greater than 128 µg/mL; in assay [4], 16 µg/mL (≈ 28.6 µM); in assay [5], 128 µg/mL (≈ 229 µM).

As to `CO[C@H]1C[C@H]2C=C[C@H]3[C@H]4O[C@]2(/C(C)=C/[C@@H](C)[C@@H]([C@@H](C)O)OC1=O)[C@@H]3[C@H](O)C(C)[C@H]4C#N` (stereo partly drawn) [Example 188, (3R,4S,7S,8aS,10aR,11R,12S,14R,14aS,14bS,E)-14-hydroxy-4-((R)-1-hydroxyethyl)-7-methoxy-1,3,13-trimethyl-6-oxo-3,4,6,7,8,8a,10a,11,12,13,14,14a-dodecahydro-11,14b-epoxynaphtho[2,1-e]oxecine-12-carbonitrile], the IC50 is greater than 232 µM in assay [1] (setting [8]) and 0.232 µM in assay [6] (S. aureus DnaE IC50). The MIC in assay [2] is 128 µg/mL; in assay [3], 64 µg/mL (≈ 148 µM); in assay [4], 32 µg/mL (≈ 74.2 µM); in assay [5] it was 128 µg/mL (≈ 297 µM).
